Results reported in ChEMBL document CHEMBL4342448, “Antcamphorols A-K, Cytotoxic and ROS Scavenging Triterpenoids from Antrodia camphorata” (J Nat Prod, 2020).

Assays:
[1] = test system: U-251; experiment: Cytotoxicity against human U251 cells incubated for 24 hrs by MTT assay; assay type: functional, cell-based; conditions: U-251, 24 h
[2] = test system: MCF7; experiment: Cytotoxicity against human MCF7 cells incubated for 24 hrs by MTT assay; assay type: functional, cell-based; conditions: MCF7, 24 h
[3] = test system: SW480; experiment: Cytotoxicity against human SW480 cells incubated for 24 hrs by MTT assay; assay type: functional, cell-based; conditions: SW480, 24 h
[4] = test system: L02; experiment: Cytotoxicity against human L02 cells incubated for 24 hrs by MTT assay; assay type: cell-based; conditions: l02, 24 h
[5] = test system: HUVEC; experiment: Induction of ROS scavenging activity in HUVEC assessed as reduction in high glucose-induced intracellular ROS level at 20 uM incubated for 6 hrs by DCFH-DA/Hoechst 33342 staining based assay relative to control; assay type: functional, Homo sapiens; set-up: scale not given: the % may be the effect or the level left
[6] = test system: HUVEC; experiment: Induction of ROS scavenging activity in HUVEC assessed as reduction in high glucose-induced intracellular ROS level at 5 uM incubated for 6 hrs by DCFH-DA/Hoechst 33342 staining based assay relative to control; assay type: functional, Homo sapiens; set-up: scale not given: the % may be the effect or the level left

In the case of `C=C(CC[C@@H](C)[C@H]1CC[C@H]2C3=C(C(=O)C[C@]12C)[C@@]1(C)CC[C@@H](O)[C@](C)(O)[C@@H]1C[C@@H]3O)[C@@H](C)C(=O)O`, the IC50 [1] is reported as over 100 µM, the IC50 [2] is reported as over 100 µM and the IC50 [3] is reported as over 100 µM. The Activity [4] was “Non-Toxic”.

Compound `C=C(CC[C@@H](C)[C@H]1CC[C@H]2C3=C(C(=O)[C@H](O)[C@]12C)[C@@]1(C)CC[C@@H](O)[C@@H](C)[C@@H]1CC3=O)[C@@H](C)C(=O)O` has an IC50 [1] of over 100 µM, an IC50 [2] of over 100 µM and an IC50 [3] of over 100 µM. The Activity [4] was “Non-Toxic” and the Activity [5] was 70.5%.

`C=C(CC[C@@H](C)[C@H]1CC[C@H]2C3=C(C(=O)[C@H](O)[C@]12C)[C@@]1(C)CC[C@@H](O)[C@@H](C)[C@@H]1CC3=O)[C@H](C)C(=O)O` gave an IC50 [1] of over 100 µM, an IC50 [2] of over 100 µM and an IC50 [3] of over 100 µM. For the same compound, the Activity [4] was “Non-Toxic”.

`C=C(CC[C@@H](C)[C@H]1CC[C@H]2C3=C(C(=O)C[C@]12C)[C@@]1(C)CCC(=O)[C@@H](C)[C@@H]1C[C@@H]3O)[C@H](C)C(=O)O` was tested, and the IC50 [1] was over 100 µM, the IC50 [2] was over 100 µM and the IC50 [3] was over 100 µM. The Activity [4] was “Non-Toxic”.

In the case of `C=C(CC[C@@H](C)[C@H]1CC[C@H]2C3=C(C(=O)C[C@]12C)[C@@]1(C)CCC(=O)[C@@H](C)[C@@H]1C[C@@H]3O)[C@@H](C)C(=O)O`, the IC50 [1] is reported as over 100 µM, the IC50 [2] is reported as over 100 µM and the IC50 [3] is reported as over 100 µM. For the same compound, the Activity [4] was “Non-Toxic”.

`C=C(CC[C@@H](C)[C@H]1CC[C@H]2C3=C(C(=O)C[C@]12C)[C@@]1(C)CC[C@@H](O)[C@](C)(O)[C@@H]1C[C@@H]3O)[C@H](C)C(=O)O` was tested, and the IC50 [1] was over 100 µM, the IC50 [2] was over 100 µM and the IC50 [3] was over 100 µM. The Activity [4] was “Non-Toxic”.

In the case of `C=C(CC[C@@H](C(=O)O)[C@H]1C[C@H](O)[C@@]2(C)C3=CC[C@H]4C(C)(C)[C@@H](O)CC[C@]4(C)C3=CC[C@]12C)C(C)C`, the IC50 [1] is reported as over 100 µM, the IC50 [2] is reported as over 100 µM and the IC50 [3] is reported as over 100 µM. The Activity [4] was “Non-Toxic”.

With `C=C(CC[C@@H](C)[C@H]1CC[C@H]2C3=CC[C@H]4[C@H](C)C(=O)CC[C@]4(C)C3=C[C@H](O)[C@]12C)C(C)C` the IC50 [1] was over 100 µM, the IC50 [2] was over 100 µM and the IC50 [3] was over 100 µM. For the same compound, the Activity [4] was “Non-Toxic” and the Activity [5] was 69.9%.

With `C=C(CC[C@@H](C)[C@H]1CC[C@H]2C3=CC[C@H]4[C@H](C)C(=O)CC[C@]4(C)C3=CC[C@]12C)C(C)C` the IC50 [1] was over 100 µM, the IC50 [2] was over 100 µM and the IC50 [3] was over 100 µM. For the same compound, the Activity [4] was “Non-Toxic” and the Activity [5] was 63.9%.

`C=C(CC[C@@H](C)[C@H]1CC[C@@]2(O)C3=C(C(=O)C[C@]12C)[C@@]1(C)CCC(=O)[C@@H](C)[C@@H]1CC3)C(C)C` showed an IC50 [1] of over 100 µM, an IC50 [2] of over 100 µM and an IC50 [3] of over 100 µM. The Activity [4] was “Non-Toxic”.

With `C/C=C(\CO)CC[C@@H](C)[C@H]1CC[C@H]2C3=C(C(=O)C[C@]12C)[C@@]1(C)CC[C@@H](O)[C@](C)(O)[C@@H]1C[C@@H]3O` the IC50 [1] was 9.2 µM, the IC50 [2] was over 100 µM and the IC50 [3] was over 100 µM. For the same compound, the Activity [4] was “Non-Toxic”.

With `CC1=C2C3=C(CC[C@]2(C)[C@@H]([C@H]2CC[C@](CO)(C(C)C)OC2)C1)[C@@]1(C)CC[C@H](O)C(C)(C)[C@@H]1CC3` the IC50 [1] was over 100 µM, the IC50 [2] was over 100 µM and the IC50 [3] was over 100 µM. The Activity [4] was “Non-Toxic”.

Compound `C=C(CC[C@@H](C)[C@H]1CC[C@H]2C3=C(C(=O)C[C@]12C)[C@@]1(C)CC[C@@H](O)[C@H](O)[C@@H]1C[C@@H]3O)[C@@H](C)C(=O)O` has an IC50 [1] of over 100 µM, an IC50 [2] of over 100 µM and an IC50 [3] of over 100 µM. For the same compound, the Activity [4] was “Non-Toxic”.

`C=C(CC[C@@H](C)[C@H]1CC[C@H]2C3=C(C(=O)C[C@]12C)[C@@]1(C)CC[C@@H](O)[C@H](O)[C@@H]1C[C@@H]3O)[C@H](C)C(=O)O` gave an IC50 [1] of over 100 µM, an IC50 [2] of over 100 µM and an IC50 [3] of over 100 µM. The Activity [4] was “Non-Toxic”.

`C=C(CC[C@@H](C)[C@H]1CC[C@H]2C3=CC[C@H]4[C@H](C)[C@@H](O)CC[C@]4(C)C3=C[C@@H](O)[C@]12C)C(C)C` was tested, and the IC50 [1] was 15.6 µM, the IC50 [2] was 8.1 µM and the IC50 [3] was 16.4 µM. For the same compound, the Activity [4] was “Non-Toxic”.

`C=C(CC[C@@H](C)[C@H]1CC[C@H]2C3=CC[C@H]4[C@H](C)C(=O)CC[C@]4(C)C3=C[C@@H](O)[C@]12C)C(C)C` showed an IC50 [1] of over 100 µM, an IC50 [2] of over 100 µM and an IC50 [3] of over 100 µM. For the same compound, the Activity [4] was “Non-Toxic”.

Work on `C=C(CC[C@@H](C)[C@H]1CC[C@H]2C3=C(C(=O)C[C@]12C)[C@@]1(C)CCC(=O)[C@@H](C)[C@@H]1C[C@H]3O)C(C)C` yielded an IC50 [1] of over 100 µM, an IC50 [2] of over 100 µM and an IC50 [3] of over 100 µM. The Activity [4] was “Non-Toxic” and the Activity [5] was 66.7%.

`C/C=C(/CO)CC[C@@H](C)[C@H]1CC[C@H]2C3=C(C(=O)C[C@]12C)[C@@]1(C)CC[C@@H](O)[C@](C)(O)[C@@H]1C[C@@H]3O` showed an IC50 [1] of 10.4 µM, an IC50 [2] of over 100 µM and an IC50 [3] of over 100 µM. The Activity [4] was “Non-Toxic”.

Work on `C=C1CC[C@H](O)C/C1=C/C=C1\CCC[C@]2(C)[C@@H]([C@H](C)CCCC(C)C)CC[C@@H]12` [CHOLECALCIFEROL] yielded an Activity [6] of 65.4%.

Work on `C=C(CC[C@@H](C(=O)O)[C@H]1CC[C@@]2(C)C3=CC[C@H]4C(C)(C)[C@@H](O)CC[C@]4(C)C3=CC[C@]12C)C(C)C` [DEHYDROEBURICOIC ACID] yielded an IC50 [1] of over 100 µM, an IC50 [2] of over 100 µM and an IC50 [3] of over 100 µM. For the same compound, the Activity [4] was “Non-Toxic” and the Activity [5] was 69.8%.

`C=C(CC[C@@H](C(=O)O)[C@H]1CC[C@@]2(C)C3=C(CC[C@]12C)[C@@]1(C)CC[C@H](O)C(C)(C)[C@@H]1CC3)C(C)C` [EBURICOIC ACID] gave an IC50 [1] of over 100 µM, an IC50 [2] of over 100 µM and an IC50 [3] of over 100 µM. For the same compound, the Activity [4] was “Non-Toxic”.

With `CCc1c2c(nc3ccc(OC(=O)N4CCC(N5CCCCC5)CC4)cc13)-c1cc3c(c(=O)n1C2)COC(=O)[C@]3(O)CC` [IRINOTECAN] the IC50 [2] was 0.8 µM.

`C=C(CC[C@@H](C(=O)O)[C@H]1C[C@H](O)[C@@]2(C)C3=C(CC[C@]12C)[C@@]1(C)CC[C@H](O)C(C)(C)[C@@H]1CC3)C(C)C` [SULFURENIC ACID] showed an IC50 [1] of over 100 µM, an IC50 [2] of over 100 µM and an IC50 [3] of over 100 µM. The Activity [4] was “Non-Toxic”.

For `Cn1nnc2c(C(N)=O)ncn2c1=O` [TEMOZOLOMIDE], the IC50 [1] was 36.4 µM.
